# Data as given in publication PMC12434534, “Synthesis and Antiviral Evaluation of Unexplored Dioxolane-Derived 7‑Deazapurine Nucleoside Analogues against Epstein–Barr Virus (EBV)” (ACS Medicinal Chemistry Letters, 2025).
# Where two headings read alike, the source gives them in different places.
# Legend:
# HIV-FL = test: microbe, parasite or virus in culture
# Experimental: First, TZM-GFP cells were seeded in the 96-well plate (10 000/well), and after 24 h, selected compounds and HIV FL virus (MOI = 0.1) were added to the plate. […] At 48 h post-infection (hpi), GFP production due to infection was measured by Cytation 5, and a 50% reduction in efficacy (EC50) and cell viability (CC50) were determined using GraphPad software (San Diego, CA, USA, www.graphpad.com). […]
# (10,000/well), and after 24 h, selected compounds and HIV FL (MOI=0.1) virus were added to the […]
# plate. […] At 48 h post-infection (hpi), the GFP cells were measured by Cytation 5, and a 50% reduction in efficacy (EC50) and cell viability (CC50) was determined using GraphPad software (San Diego, California, www.graphpad.com). […]
# (§1) Evaluation of Cytotoxicity: The cytotoxic effects of test compounds for P3HR1 and TZN-GFP cells were determined by CellTiter 96 Non-Radioactive Cell Proliferation assay system (Promega) using either 2,3-Bis-(2-Methoxy-4-nitro-5-sulfophenyl)-2H-tetrazolium-5-carboxanilide, disodium salt (XTT) or 3- (4,5-dimethylthiazol-2-yl)-2,5-diphenyltetrazolium bromide (MTT) methods under the same conditions as the antiviral assay but in the absence virus. Cells were seeded at a density of 1 x 105 (P3HR-1) or 2 x 104 (TZM-GFP) cells per well in 96-well plates and […]
# TZM-GFP cells = test: Cytotoxicity in TZM-GFP cells (XTT or MTT assay); format: cell-based
# Experimental: (§2) plate. […] At 48 h post-infection (hpi), the
# (§3) Blood and Tissue Kit. The DNA volume was 30 μL. DNA concentration (ng/μL) was determined with a Nanophotometer (IMPLEN). The Real -time PCR was performed using QuantiTect Sybr […]
# (§4) Green PCR Kit. […] The primers were
# (§5) The 20 μL PCR sample contained 100 ng
# (§6) (Restriction Enzyme, BioLabs) and RNase -free water. The PCR program consisted of 1 cycle at […]
# (§7) allowed to incubate overnight. On the second day, different concentrations of test compounds were […]
# (§8) added to respective cells. Following 4 days of incubation at 37 °C in a CO2 incubator, the MTT or […]
# (§9) XTT reagent was added, and the cells were incubated for 3 hours at 37 °C. Subsequently, the […]
# (§10) absorbance of the samples was measured using a microplate reader (Biotek). The cytotoxic […]
# (§11) concentration (CC50) was determined based on the viability of mock-infected cells. […]
# EBV = test: Anti-EBV assay: reduction of EBV DNA synthesis (qPCR) in TPA-induced P3HR-1 cells; conditions: for EC50: human gammaherpesvirus 4, P3HR-1, 120 h, read-out: EC50, Antiviral Activity against EBV (in P3HR-1 Cells); for EC90: human gammaherpesvirus 4, P3HR-1, read-out: EC90, Antiviral Activity against EBV (in P3HR-1 Cells); for SI (CC50/EC50), EBV: selectivity index = CC50/EC50, P3HR-1 cells
# Experimental: The antiviral potency of all synthesized nucleosides was evaluated by in-vitro cell-based assays. P3HR-1 cells were seeded in 24-well plates at a density of 1 × 10^6 cells/mL. EBV replication was induced by adding 25 ng/mL 12-O-tetradecanoylphorbol 13-acetate (TPA) (Sigma–Aldrich, Bornem, Belgium) to the growing cells. The next day, cells were washed and resuspended in fresh medium in the presence or absence of various concentrations of synthesized nucleosides (12–19). Ganciclovir (GCV) was used as antiviral control. On day 5 post-induction, total cellular DNA was extracted (QIAamp DNA kit; Qiagen Benelux B.V, Venlo, The Netherlands), and viral DNA was quantified by quantitative PCR (qPCR) using an ABI Prism 7500 Sequence Detection System (Applied Biosystems, Foster City, CA). Thermocycling conditions for all qPCRs were done following the manufacturer’s instructions. […] The results were obtained as a means from at least three independent experiments. The selectivity index of the compound was determined by the ratio of CC50/EC50. For both efficacy and cytotoxicity assays, the 50% reduction in efficacy (EC50) and cell viability (CC50) was determined using GraphPad software (GraphPad, San Diego, CA, USA, www.graphpad.com).
# 0.2, 0.04, 0 μM). TPA was removed after 24 h, and the same concentration of compounds was […]
# replaced. […]
# Real-time PCR detection of viral DNA: EBV DNA was extracted with a QIAGEN Dneasy Blood and Tissue Kit. The DNA volume was 30 μL. DNA concentration (ng/μL) was determined with a Nanophotometer (IMPLEN). The Real -time PCR was performed using QuantiTect Sybr Green PCR Kit. The amplicon was a 71 bp portion of the EBNA1 gene. The primers were […]
# as §5
# DNA, 10 μL Universal PCR Master Mix, primer (0.5 uM final concentration), 1 μL BamH I-HF (Restriction Enzyme, BioLabs) and RNase -free water. The PCR program consisted of 1 cycle at 50 °C, 2 minutes of UNG pretreatment, followed by 1 cycle at 95 °C for 15 minutes. Then 40 cycles of 94 °C for 15 seconds, 55 °C for 30 seconds, and 72 °C for 30 seconds were carried out.
# as §1
# [1] = Cytotoxicity in P3HR-1 cells (XTT or MTT assay); format: cell-based; conditions: human
# [2] = Cytotoxicity in TZM-GFP cells (XTT or MTT assay); format: cell-based; conditions: human; concentration reducing cellular viability by 50% after 48 h, XTT or MTT assay; TZM-GFP cells
# Experimental: as §2, §3, §4, §5, §6, §7, §8, §9, §10, §11
# [3] = concentration reducing cellular viability by 50% after 48 h, XTT or MTT assay, P3HR-1 cells, read-out: CC50 (P3HR-1 Cells)
# [4] = Human immunodeficiency virus 1, read-out: EC50, Antiviral Activity against HIV-FL (in TZM-GFP Cells)
Compound,"EC50 (HIV-FL; read-out: EC50, Antiviral Activity against HIV-FL (in TZM-GFP Cells), 48 hpi, MOI = 0.1, TZM-GFP cells, mean of at least three experiments) [µM]","SI (CC50/EC50), HIV-FL (HIV-FL; selectivity index = CC50/EC50, TZM-GFP cells)",CC50 (TZM-GFP cells) [µM],EC50 (EBV) [µM],EC90 (EBV) [µM],"SI (CC50/EC50), EBV (EBV)","CC50 at 48 h [1, 3] [µM]","potency against EBV relative to ganciclovir (times more potent) (EBV; EC50 compared with GCV, P3HR-1 cells)",antiviral activity against EBV (in words) (EBV; P3HR-1 cells),EC50 (HIV-FL; [4]) [µM],CC50 at 48 h [2] [µM],CC50 at 48 h [1] [µM]
"Cc1[nH]c2ccccc2c1CC(=O)N[C@@H](Cc1ccccc1)C(=O)N(C)c1ccccc1 [PF-74, reference compound]",0.6 ± 0.05,>166,> 100,,,,,,,,,
Nc1nc(F)nc2c1ccn2[C@H]1CO[C@@H](CO)O1 [Compound 18],,,,15.5 ± 3.7,> 23.9,6,91.7,,,,,
"Nc1ncnc2c1c(Br)cn2[C@H]1CO[C@@H](CO)O1 [Compound 15, 7-Bromo-deazapurine-D-dioxolane nucleoside]",,,,0.17,0.54 ± 0.36,294,49.9,14,potent anti-EBV activity,20.8 ± 0.25,41.9,
CNc1nc(N)nc2c1ccn2[C@H]1CO[C@@H](CO)O1 [Compound 19],,,,> 25,,,13.3,,inactive,,,
"C=Cc1cn([C@@H]2CO[C@H](CO)O2)c(=O)[nH]c1=O [L-HDVD, reference compound]",,,,0.12 ± 0.01,0.52 ± 0.04,>833,> 100,,,,,
Nc1nc(N)c2ccn([C@H]3CO[C@@H](CO)O3)c2n1 [Compound 17],,,,11.9 ± 0.3,,>8,> 100,,,,,
Nc1ncnc2c1c(I)cn2[C@H]1CO[C@@H](CO)O1 [Compound 16],,,,0.47 ± 0.2,1.5 ± 0.09,45,21.2,,potent anti-EBV activity,10.3 ± 0.39,11.9,
"Nc1nc(O)c2ncn(COC(CO)CO)c2n1 [GCV, ganciclovir, reference compound]",,,,2.5 ± 0.22,16.2 ± 0.21,>40,,,,,,> 100
Nc1ncnc2c1c(Cl)cn2[C@H]1CO[C@@H](CO)O1 [Compound 14],,,,12.5 ± 0.8,> 25,,> 100,,,28.7 ± 0.45,88,
Nc1ncnc2c1c(F)cn2[C@H]1CO[C@@H](CO)O1 [Compound 13],,,,1.2 ± 1.8,2.28 ± 1.29,,71.3 ± 25.6,,,3.96 ± 0.39,> 100,
Nc1ncnc2c1ccn2[C@H]1CO[C@@H](CO)O1 [Compound 12],,,,> 25,> 25,,91.3,,inactive,5.85 ± 1.01,> 100,
